# Data from patent publication US20220288081A1, “TREATMENT OF EXCITOTOXICITY-RELATED CONDITIONS” (priority 2019, published 2022).
# Assays:
# Type in all cases: in vivo
# non-transgenic (wt) mice = assay: Telemetric hippocampal EEG recordings in non-transgenic (wt) mice; conditions: pre and post intraperitoneal injection
# Protocol: (§1) FIG. 3. LIMK1 inhibition reduced susceptibility to induced seizures and mitigated neuronal network hypersynchronisity in mice. (A) Excitotoxic seizures were induced by acute intraperitoneal injection of 50 mg/kg body weight pentylenetetrazole (PTZ) followed by timing and scoring (0=no seizures to 7=terminal status epilepticus) of seizure development. Mice were treated with vehicle or 10 mg/kg body weight LIMK1 inhibitor LIMKi intraperitoneally 30 minutes prior to seizure induction. […] (B) Compound hippocampal electroencephalography (EEG) recordings over 4 hours in non-transgenic (wt) and APP transgenic (APP23) mice including 2 hours before (Pre) and 2 hours after (Post) LIMKi or vehicle administration. Time of intraperitoneal LIMKi and vehicle administration is indicated with an arrow. […] Frequent spikes pre and post vehicle administration in APP23 mice. In contrast, LIMKi injection mitigates spike activity in APP23 post injection. […] From left to right: non-Tg+vehicle; non-Tg+LIMKi; APP23+vehicle; APP23+LIMKi.
# Electroencephalography. Hippocampal EEG recordings were done with implanted telemetric electrodes (D.S.I.) as previously described (Ittner et al., 2014, Acta neuropathologica communications 2, 149). All recordings were done with mice individually housed in their home cages one week after implantation of transmitters. […]
# APP23 mice = assay: Telemetric hippocampal EEG recordings (spike analysis, cross frequency coupling) in APP23 mice; conditions: for amplitude phase in EEG recordings / modulation index of cross frequency coupling: vs wt controls; for spike frequency / hypersynchronous discharges in EEG: intraperitoneal, 2 hours pre vs 2 hours post administration, and vs vehicle
# Protocol: as §1
# Mice. APP23 express human Swedish mutant (K595N/M596L) amyloid-β precursor protein (APP) in neurons (Sturchler-Pierrat et al., 1997, Proc Natl Acad Sci USA 94, 13287-13292). Limk1^−/− mice have been reported previously (Meng et al., 2002, Neuron 35, 121-133). All mice were on a pure C57Bl/6 background. Mice were housed in standard individually ventilated cages on a 12 hour light/dark cycle with access to standard chow and water ad libitum. Mice of both genders were used unless otherwise indicated. Investigators were blinded to genotypes until after completion of data analysis. All experiments were approved by the Animal Ethics Committee of Macquarie University.
# Electroencephalography. Hippocampal EEG recordings were done with implanted telemetric electrodes (D.S.I.) as previously described (Ittner et al., 2014, Acta neuropathologica communications 2, 149). All recordings were done with mice individually housed in their home cages one week after implantation of transmitters. Compound administration was done intraperitoneally during transient restraining of mice. Vehicle for the LIMK1 inhibitor LIMKi contained hydroxypropyl methylcellulose 606 (HPMC 606) with polyvinylpyrrolidone k17 (PVP k17) and tween 80 in a proportion of 0.5%, 0.5%, 0.1%, respectively. Spike analysis was done with the Neuroscore software module (D.S.I.) as previously described (Ittner et al., 2016, Science 354, 904-908). Cross frequency coupling of theta and gamma waves was performed as previously described (Ittner et al., 2016, Science 354, 904-908).
# (§2) Next, the inventors tested the effects of acute Compound 1 administration on neuronal network activity in APP23 mice. […] Furthermore, CFC 1 hour after Compound 1 administration was re-established (data not shown). […] Thus, inhibition of LIMK1 with Compound 1 conferred protection from Aβ toxicity in neurons and from excitotoxicity in vivo. Furthermore, treatment of APP23 with Compound 1 corrected network aberrations including CFC.
# C57Bl/6 mice = assay: Pentylenetetrazole (PTZ)-induced excitotoxic seizure model; conditions: for mean seizure severity (score 0 to 5): n=9
# Protocol: as §1
# Seizure model. Excitotoxic seizure were induced in mice by intraperitoneal injection of 50 mg/kg body weight pentylenetetrazole followed by observation in a square area (40×40 cm). Scoring of seizures was done as previously described (Ittner et al., 2010, Cell 142, 387-397). For LIMKi-treated mice, scoring was adjusted by combining the severe seizure scores 5 to 7 into a single score of 5. For both scales, minor to moderate seizures are reflected by scores <5.
# as §2
# [1] = 1 hour after administration, n=8
# [2] = 1 hour after administration, n=8, listed as LIMKi
# [3] = 10 mg/kg intraperitoneally 30 minutes prior to 50 mg/kg PTZ i.p., vs vehicle controls
smiles,measurement,setting,value
Cc1c[nH]c2ncnc(N3CCN(/C(=N\C#N)Nc4cccc(Br)c4)[C@@H](C)C3)c12 [Compound 1],spike activity in EEG,non-transgenic (wt) mice,No overt spike activity
same,cross frequency coupling (CFC),"APP23 mice; 1 hour after administration, data not shown",re-established
same,amplitude phase in EEG recordings,APP23 mice; [1],normalized
same,modulation index of cross frequency coupling,APP23 mice; [1],normalized
same,amplitude phase in EEG recordings,APP23 mice; [2],corrected 1 hour after LIMKi delivery and no longer different from wt controls
same,modulation index of cross frequency coupling,APP23 mice; [2],corrected 1 hours after LIMKi administration and no longer different from wt controls
same,spike frequency / hypersynchronous discharges in EEG,APP23 mice; n=8,hypersynchronicity significantly decreased
same,spike frequency / hypersynchronous discharges in EEG,"APP23 mice; n=8, listed as LIMKi",significantly reduced spike frequency
same,latency to develop severe seizures,"C57Bl/6 mice; 10 mg/kg 30 minutes prior to PTZ, C57Bl/6 mice",increased the latency to develop severe seizures
same,development of severe seizure stages over time (score=5),C57Bl/6 mice; [3],Only vehicle-treated mice develop severe seizure stages over time
same,latency to develop lower grade seizures (score <5),C57Bl/6 mice; [3],Delayed latency to develop lower grade seizures
same,mean seizure severity (score 0 to 5),C57Bl/6 mice; [3],significantly reduced mean seizure severity
same,mean seizure severity (score 0 to 5),"C57Bl/6 mice; 10 mg/kg intraperitoneally 30 minutes prior to 50 mg/kg PTZ i.p., vs vehicle controls, listed as LIMKi",Significantly reduced seizure severity
